Data set [1] has as its system PC3 subcutaneous xenograft tumor. The experiment in a line: In vivo pharmacodynamic study, mouse PC3 subcutaneous xenograft tumor model. The method, then:
Each nude mouse was grafted subcutaneously with 10×10^6 PC3 cells. When the tumor grew to 100-200 mm^3, the compound was administered orally once a day, and the tumor volume was measured twice a week and at the end of treatment. Tumor growth inhibition rate of the compound was calculated according to the following equation: tumor growth inhibition (TGI)=1−(tumor volume on day 17 in treatment group−tumor volume on day 1 in treatment group)/(tumor volume on day 17 in vehicle control group−tumor volume on day 1 in […]).

The nature of data set [2]: Stability experiment in aqueous hydrochloric acid solution pH 2 (HPLC). It counts as physicochemical. The procedure: 5 mg each of compound 59 and compound A was dissolved in an aqueous hydrochloric acid solution (5 mL) with a pH of 2. The mixture was stirred at room temperature. Samples were taken after 0.5 h for HPLC assay using the following assay conditions. The HPLC assay results are shown in Table 7. • Instrument: Agilent 1260 infinity 2 • Column: Xtimate C18 4.6*150 mm,3 um • Temperature:25° C. • Wave length:210 nm/254 nm • phase A: H2O (0.1% TFA) • phase B: MECN (0.1% TFA) • Gradient: […]

The next data set concerns PC3 cells. The experiment in a line: In vitro anti-proliferative activity against PC3 cells (agarose, 7 days). In kind it is cell-based. The note with it: Homo sapiens, PC-3, 168 h, 7 days of incubation. The method, then:
PC3 cells were mixed with 0.4% agarose at 1200 cells/well, and the mixture was seeded on 0.6% agarose. The compound serially diluted was added, and the cell number was measured after 7 days of incubation. The inhibition percentages and IC50 of the compounds were calculated compared to the DMSO group.

The nature of data set [3]: In vivo pharmacokinetic experiment in CD-1 female mice. Particulars: mouse, plasma, CD-1 mice. The method, then:
CD-1 female mice aged 7 to 10 weeks were intravenously administered and orally administered at a dose of 2 mg/kg and 10 mg/kg, respectively. The mice were fasted for at least 12 h before the administration and given food 4 h after the administration, and they were given ad libitum access to water during the experiment. On the day of the experiment, animals in the intravenous group were administered the corresponding compound by single injection via the tail vein at an administration volume of 10 mL/kg. Animals in the oral group were administered the corresponding compound by single intragastric injection at an administration volume of 10 mL/kg. The animals were weighed before administration, and the administration volume was calculated according to the body weight. The sample collection time was 0.083 h (injection group), 0.167 h, 0.5 h, 1 h, 2 h, 4 h, 8 h, and 24 h. About 200 μL of whole blood was collected through the submaxillary venous plexus at each time point and used to prepare plasma for concentration determination by high-performance liquid chromatography-tandem mass spectrometry (LC-MS/MS). All animals were euthanized with CO2 anesthesia after the PK samples were collected at the last time point. The plasma concentrations were processed using a non-compartmental model of Phoenix WinNonlin™ version 8.3 (Certara) pharmacokinetic software, and the pharmacokinetic parameters were calculated using a linear-log trapezoidal method.

The target of another data set is recombinant protein Src (Homo sapiens (Human), UniProt P12931). As to the kind of experiment: In vitro assay for inhibiting Src kinase activity (biotin-labeled TK substrate, Sa-XL 665, Cryptate-labeled antibody). It counts as biochemical. The note with it: read-out: IC50, inhibitory activity against recombinant protein Src. The method, then:
After the compound serially diluted with DMSO and a Src recombinant protein were incubated at room temperature for 10 min, the reaction was initiated by the addition of a biotin-labeled TK substrate and ATP. After the mixture was left to stand at room temperature for 40 min Sa-XL 665 and a Cryptate-labeled antibody were added. The fluorescence values at 615 nm and 665 nm were measured, and the ratio of 665 nm to 615 nm was calculated. The inhibition percentages and IC50 of the compounds were calculated compared to the DMSO group.

The record followed here is patent US20250042904A1, “COMPOUNDS USED AS SRC INHIBITORS” (WIGEN BIOMEDICINE TECHNOLOGY (SHANGHAI) CO., LTD., priority 2021, published 2025).

Sequence of recombinant protein Src (P12931 whole entry, looked up): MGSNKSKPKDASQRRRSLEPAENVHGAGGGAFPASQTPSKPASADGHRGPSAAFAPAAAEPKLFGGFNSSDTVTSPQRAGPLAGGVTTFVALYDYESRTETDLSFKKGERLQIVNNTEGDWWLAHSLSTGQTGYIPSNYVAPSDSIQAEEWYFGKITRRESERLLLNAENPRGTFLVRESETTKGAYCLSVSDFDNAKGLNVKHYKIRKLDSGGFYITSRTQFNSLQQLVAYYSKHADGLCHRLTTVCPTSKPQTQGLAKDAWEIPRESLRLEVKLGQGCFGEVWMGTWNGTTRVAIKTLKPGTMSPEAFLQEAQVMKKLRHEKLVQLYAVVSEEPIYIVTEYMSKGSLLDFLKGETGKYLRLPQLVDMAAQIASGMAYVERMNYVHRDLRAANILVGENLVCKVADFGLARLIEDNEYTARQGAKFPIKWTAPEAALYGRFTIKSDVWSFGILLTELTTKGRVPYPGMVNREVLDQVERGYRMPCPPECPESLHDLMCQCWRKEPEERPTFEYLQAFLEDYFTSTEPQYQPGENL

By IC50 is commonly meant the concentration that inhibits the measured activity by half. One may read the AUC(0-t) as exposure summed from dosing to a finite time, without extrapolation to infinity. A higher AUC(0-t) goes with high exposure. Usually Cmax stands for the peak of the concentration-time curve. In general, bioavailability refers to the share of a dose that reaches the circulation, judged against a reference dose that is usually intravenous. In general, half-life refers to the time needed for the level to fall by half in the phase considered. Lower therefore signals fast loss. One may read the clearance as a measure of how efficiently the substance is removed, as volume per time. As for `COc1cc(-c2nn(CCN3CCC(N(C)C)CC3)c3ncnc(N)c23)ccc1NC(=O)OC1(C)CC1` [Compound 59], in data set [1] (day 17, oral once a day, 50 mg/kg (day 1-day 7), 80 mg/kg (day 8-day 18)), the “TGI (tumor growth inhibition)” value is on record as 53%. In addition, the “Tumor volume on day 17 of treatment” value in data set [1] (nude mice, oral once a day, 50 mg/kg (day 1-day 7), 80 mg/kg (day 8-day 18)) amounted to 318 mm^3. Besides, in data set [1] (nude mice, oral once a day, baseline day 1), the “Tumor volume on day 1 of treatment” value was 120 mm^3. In addition, the Initial purity in data set [2] (before acid treatment (baseline)) is listed as 96.35%. For the same molecule, the “Purity after stirring in an aqueous hydrochloric acid solution with a pH of 2 for 0.5 h” value in data set [2] (pH 2, room temperature, 0.5 h) amounted to 96.16%. The molecule further had an IC50 with PC3 cells of 5.3 nM. In data set [3] (oral administration 10 mg/kg), the AUC(0-t) was found to be 491 ng·h/mL, the peak level (Cmax) was 88.9 ng/mL, the bioavailability worked out at 32.1% and the half-life was 5.3 h. In data set [3] (iv, injection 2 mg/kg), the AUC(0-t) was 300 ng·h/mL, the clearance is 1770 mL/min/kg and the half-life is 5.9 h. For the same molecule, in data set [3] (iv, injection 2 mg/kg, read-out: Vdss), the Vd turned out to be 35.6 L/kg. In addition, the IC50 at recombinant protein Src is at most 10 nM.
